Values joined by “and” are separate entries in the source; they are usually repeats but may differ in a detail not shown here. Equal values may be shown once. ± gives the uncertainty stated by the source.
Assay: xn = mol fraction of the nth substance listed

CCCCCCCCCCCCCCCC + C1CCCCC1
viscosity [mPa·s]
Conditions	298.15 K	323.15 K
100 kPa, x2 = 0.2	2.654 ± 0.11	1.632 ± 0.067
100 kPa, x2 = 0.4	2.239 ± 0.091	1.399 ± 0.057
100 kPa, x2 = 0.6	1.79 ± 0.072	1.154 ± 0.047
100 kPa, x2 = 0.8	1.326 ± 0.053	0.8848 ± 0.036
101.33 kPa, x1 = 0.0129	0.9348 ± 0.0079	–
101.33 kPa, x2 = 0.1809	2.717 ± 0.021	–
101.33 kPa, x2 = 0.3339	2.395 ± 0.018	–
101.33 kPa, x2 = 0.458	2.126 ± 0.017	–
101.33 kPa, x2 = 0.557	1.892 ± 0.015	–
101.33 kPa, x2 = 0.6415	1.709 ± 0.014	–
101.33 kPa, x2 = 0.7087	1.549 ± 0.012	–
101.33 kPa, x2 = 0.7738	1.39 ± 0.011	–
101.33 kPa, x2 = 0.828	1.27 ± 0.01	–
101.33 kPa, x2 = 0.8753	1.169 ± 0.0096	–
101.33 kPa, x2 = 0.9197	1.08 ± 0.0089	–
101.33 kPa, x2 = 0.9513	1.008 ± 0.0084	–

ClC(Cl)Cl + C1CCCCC1
298.15 K, 101 kPa
Conditions	viscosity [mPa·s]
x1 = 0.2026	0.7795 ± 0.0098
x1 = 0.3543	0.6917 ± 0.0087
x1 = 0.4317	0.665 ± 0.0083
x1 = 0.5593	0.6217 ± 0.0078
x1 = 0.6464	0.6057 ± 0.0076
x1 = 0.7738	0.5875 ± 0.0074
x1 = 0.886	0.5657 ± 0.0071

ClC(Cl)Cl + C1COCCO1
Conditions	viscosity [mPa·s]
293.15 K, 101.33 kPa, x1 = 0.152	1.199 ± 0.031
293.15 K, 101.33 kPa, x1 = 0.2726	1.129 ± 0.029
293.15 K, 101.33 kPa, x1 = 0.3876	1.063 ± 0.028
293.15 K, 101.33 kPa, x1 = 0.4413	1.035 ± 0.027
293.15 K, 101.33 kPa, x1 = 0.516	0.992 ± 0.026
293.15 K, 101.33 kPa, x1 = 0.6385	0.919 ± 0.024
293.15 K, 101.33 kPa, x1 = 0.7409	0.819 ± 0.021
293.15 K, 101.33 kPa, x1 = 0.8856	0.677 ± 0.018
298.15 K, 101 kPa, x1 = 0.2	1.08 ± 0.012
298.15 K, 101 kPa, x1 = 0.4	0.981 ± 0.012
298.15 K, 101 kPa, x1 = 0.6	0.865 ± 0.011
298.15 K, 101 kPa, x1 = 0.8	0.703 ± 0.011
298.15 K, 101.33 kPa, x1 = 0.152	1.073 ± 0.028
298.15 K, 101.33 kPa, x1 = 0.2726	1.018 ± 0.026
298.15 K, 101.33 kPa, x1 = 0.3876	0.964 ± 0.025
298.15 K, 101.33 kPa, x1 = 0.4413	0.952 ± 0.025
298.15 K, 101.33 kPa, x1 = 0.516	0.905 ± 0.023
298.15 K, 101.33 kPa, x1 = 0.6385	0.837 ± 0.022
298.15 K, 101.33 kPa, x1 = 0.7409	0.774 ± 0.02
298.15 K, 101.33 kPa, x1 = 0.8856	0.658 ± 0.017
303.15 K, 101 kPa, x2 = 0.0995	0.59 ± 0.006
303.15 K, 101 kPa, x2 = 0.1981	0.672 ± 0.007
303.15 K, 101 kPa, x2 = 0.2998	0.75 ± 0.007
303.15 K, 101 kPa, x2 = 0.3953	0.801 ± 0.008
303.15 K, 101 kPa, x2 = 0.4992	0.857 ± 0.008
303.15 K, 101 kPa, x2 = 0.5971	0.91 ± 0.009
303.15 K, 101 kPa, x2 = 0.6993	0.956 ± 0.009
303.15 K, 101 kPa, x2 = 0.8015	0.997 ± 0.01
303.15 K, 101 kPa, x2 = 0.9021	1.044 ± 0.01
303.15 K, 101.33 kPa, x1 = 0.2137	1.007 ± 0.026
303.15 K, 101.33 kPa, x1 = 0.3447	0.949 ± 0.024
303.15 K, 101.33 kPa, x1 = 0.4212	0.934 ± 0.024
303.15 K, 101.33 kPa, x1 = 0.4813	0.886 ± 0.023
303.15 K, 101.33 kPa, x1 = 0.5194	0.879 ± 0.023
303.15 K, 101.33 kPa, x1 = 0.5698	0.844 ± 0.022
303.15 K, 101.33 kPa, x1 = 0.7088	0.752 ± 0.019

ClC(Cl)Cl + CC1COC(=O)O1
303.15 K, 101.3 kPa
Conditions	viscosity [mPa·s]
x2 = 0.0961	0.5649 ± 0.01
x2 = 0.1929	0.6358 ± 0.011
x2 = 0.2906	0.7195 ± 0.013
x2 = 0.3894	0.8171 ± 0.014
x2 = 0.4887	0.9421 ± 0.016
x2 = 0.5894	1.098 ± 0.018
x2 = 0.6906	1.287 ± 0.021
x2 = 0.7925	1.52 ± 0.025
x2 = 0.8962	1.808 ± 0.029

O=C(O)CCl + CC(C)=O
viscosity [mPa·s], 101 kPa
Conditions	x1 = 0.1359	x1 = 0.1855	x1 = 0.2889	x1 = 0.3789	x1 = 0.4791	x1 = 0.6971	x1 = 0.8145
298.15 K	0.4351 ± 0.012	0.5339 ± 0.014	0.7329 ± 0.019	0.9727 ± 0.026	1.345 ± 0.036	–	–
308.15 K	0.394 ± 0.011	0.4777 ± 0.013	0.6435 ± 0.017	0.8439 ± 0.022	1.131 ± 0.03	2.166 ± 0.057	–
323.15 K	0.3409 ± 0.0092	0.4134 ± 0.011	0.5393 ± 0.014	0.6876 ± 0.018	0.9042 ± 0.024	1.6 ± 0.042	2.123 ± 0.056

O=CC(Cl)(Cl)Cl + CC(C)=O
viscosity [mPa·s], 101 kPa
Conditions	x1 = 0.0713	x1 = 0.1371	x1 = 0.2697	x1 = 0.3708	x1 = 0.4723	x1 = 0.5664	x1 = 0.6561	x1 = 0.7731	x1 = 0.8964
298.15 K	0.4048 ± 0.0044	0.4541 ± 0.0048	0.5494 ± 0.0074	0.6015 ± 0.0062	0.6699 ± 0.0068	0.7342 ± 0.0073	0.7924 ± 0.0079	0.8894 ± 0.0087	0.9679 ± 0.0095
308.15 K	0.3678 ± 0.0041	0.4111 ± 0.0045	–	0.5376 ± 0.0056	0.5949 ± 0.0061	0.6484 ± 0.0066	0.7021 ± 0.007	0.7778 ± 0.0077	0.8506 ± 0.0084
323.15 K	0.3231 ± 0.0037	0.3615 ± 0.004	0.4176 ± 0.0066	0.4606 ± 0.0049	0.5118 ± 0.0054	0.554 ± 0.0057	0.6001 ± 0.0061	0.6568 ± 0.0067	0.7107 ± 0.0072

CCCCCCCCCCCCCCCC + CC(C)CC(C)(C)C
298.15 K
Conditions	viscosity [mPa·s]
101 kPa, x2 = 0.05562	2.82 ± 0.028
101 kPa, x2 = 0.1311	2.55 ± 0.025
101 kPa, x2 = 0.1971	2.371 ± 0.024
101 kPa, x2 = 0.307	1.95 ± 0.019
101 kPa, x2 = 0.4264	1.651 ± 0.017
101 kPa, x2 = 0.5472	1.337 ± 0.013
101 kPa, x2 = 0.6552	1.077 ± 0.011
101 kPa, x2 = 0.7341	0.9214 ± 0.0092
101 kPa, x2 = 0.8043	0.7819 ± 0.0079
101 kPa, x2 = 0.8275	0.7495 ± 0.0075
101 kPa, x2 = 0.8768	0.6682 ± 0.0067
101 kPa, x2 = 0.929	0.5871 ± 0.0059
101 kPa, x2 = 0.9511	0.5441 ± 0.0055
101.33 kPa, x1 = 0.101	0.6392 ± 0.0056
101.33 kPa, x1 = 0.199	0.8143 ± 0.0069
101.33 kPa, x1 = 0.2987	1.014 ± 0.0085
101.33 kPa, x1 = 0.4006	1.24 ± 0.01
101.33 kPa, x1 = 0.4999	1.489 ± 0.012
101.33 kPa, x1 = 0.6004	1.765 ± 0.015
101.33 kPa, x1 = 0.7002	2.062 ± 0.017
101.33 kPa, x1 = 0.8003	2.391 ± 0.021
101.33 kPa, x1 = 0.9001	2.72 ± 0.024

O=CC(Cl)(Cl)Cl + CC(C)CCO
313.15 K, 101 kPa
Conditions	viscosity [mPa·s]
x1 = 0.0715	2.825 ± 0.075
x1 = 0.2226	4.098 ± 0.11
x1 = 0.2851	4.684 ± 0.12
x1 = 0.3509	5.476 ± 0.14
x1 = 0.4001	6.07 ± 0.16
x1 = 0.4335	6.48 ± 0.17
x1 = 0.4573	6.923 ± 0.18
x1 = 0.4722	6.922 ± 0.18
x1 = 0.4823	6.831 ± 0.18
x1 = 0.4926	6.751 ± 0.18
x1 = 0.5251	6.026 ± 0.16
x1 = 0.5576	5.406 ± 0.14
x1 = 0.6165	3.935 ± 0.1
x1 = 0.7376	2.151 ± 0.057
x1 = 0.8868	1.283 ± 0.034

ClC(Cl)Cl + CC(C)OC(C)C
298.15 K, 101 kPa
Conditions	viscosity
x1 = 0.07	0.325 ± 0.003 mPa·s
x1 = 0.12	0.35 ± 0.003 mPa·s
x1 = 0.13	0.353 ± 0.003 mPa·s
x1 = 0.16	0.369 ± 0.004 mPa·s
x1 = 0.21	0.39 ± 0.004 mPa·s
x1 = 0.26	0.413 ± 0.004 mPa·s
x1 = 0.31	0.437 ± 0.004 mPa·s
x1 = 0.35	0.458 ± 0.004 mPa·s
x1 = 0.4	0.484 ± 0.004 mPa·s
x1 = 0.46	0.507 ± 0.005 mPa·s
x1 = 0.5	0.523 ± 0.005 mPa·s
x1 = 0.55	0.543 ± 0.005 mPa·s
x1 = 0.6	0.553 ± 0.005 mPa·s
x1 = 0.65	0.565 ± 0.005 mPa·s
x1 = 0.71	0.572 ± 0.005 mPa·s
x1 = 0.76	0.577 ± 0.005 mPa·s
x1 = 0.8	0.579 ± 0.005 mPa·s
x1 = 0.85	0.581 ± 0.005 mPa·s
x1 = 0.9	0.58 ± 0.005 mPa·s
x1 = 0.95	0.579 ± 0.005 mPa·s and 0.58 ± 0.005 mPa·s

FC(F)Cl + CC(F)F
viscosity [mPa·s], 101 kPa
Conditions	293.35 K	293.45 K	312.95 K	313.25 K
x1 = 0.159	–	0.178 ± 0.0048	0.1422 ± 0.0039	–
x1 = 0.34	–	0.1749 ± 0.0048	–	0.1424 ± 0.0039
x1 = 0.534	0.1805 ± 0.0049	–	–	0.1485 ± 0.004

O=CC(Cl)(Cl)Cl + CCC(C)=O
viscosity [mPa·s], 101 kPa
Conditions	x1 = 0.1183	x1 = 0.2018	x1 = 0.3006	x1 = 0.3959	x1 = 0.5007	x1 = 0.5979	x1 = 0.6814	x1 = 0.7599	x1 = 0.847
298.15 K	0.5125 ± 0.0053	0.5629 ± 0.0058	0.6247 ± 0.0063	0.6758 ± 0.0068	0.7457 ± 0.0074	0.8097 ± 0.0079	0.8541 ± 0.0084	0.8952 ± 0.0087	0.9503 ± 0.0092
323.15 K	0.3989 ± 0.0043	0.4323 ± 0.0046	0.4784 ± 0.0051	0.5132 ± 0.0054	0.5619 ± 0.0058	0.6053 ± 0.0062	0.6241 ± 0.0064	0.6588 ± 0.0067	0.7035 ± 0.0071

O=CC(Cl)(Cl)Cl + CCCC(C)=O
viscosity [mPa·s], 101 kPa
Conditions	x1 = 0.1199	x1 = 0.2489	x1 = 0.3714	x1 = 0.5058	x1 = 0.6071	x1 = 0.7288	x1 = 0.8116	x1 = 0.9001
298.15 K	0.524 ± 0.0054	0.595 ± 0.0061	0.6722 ± 0.0067	0.7399 ± 0.0074	0.8153 ± 0.008	0.8727 ± 0.0085	0.9343 ± 0.0091	0.9935 ± 0.0096
323.15 K	0.4084 ± 0.0044	0.458 ± 0.0049	0.5112 ± 0.0053	0.5571 ± 0.0058	0.6 ± 0.0062	0.6402 ± 0.0065	0.6822 ± 0.0069	0.7258 ± 0.0073
